The record followed here is publication doi:10.1101/2024.12.16.628070v1 (bioRxiv, 2024).

Assay [1] concerns Escherichia coli. Type of assay: cell-based.
Assay [2] has as its system Klebsiella pneumoniae. The assay is described as follows: MIC, broth microdilution. Format: cell-based. The following applies: strain ATCC 700603.
Assay [3] concerns Enterococcus faecalis. The assay is described as follows: MIC, broth microdilution. Format: cell-based. The following applies: strain ATCC 29212. For orientation: Broth dilution looks for growth in wells or tubes with falling amounts of substance.
The subject of assay [4] is Enterobacter cloacae. In words: MIC, broth microdilution. Type of assay: cell-based. As to conditions: strain ATCC 13047.
Assay [5] relates to Acinetobacter baumannii. The assay is described as follows: MIC, broth microdilution. Format: cell-based. The following applies: strain ATCC 19606.
Assay [6] has as its system Staphylococcus aureus. In words: MIC, broth microdilution. Type of assay: cell-based. As to conditions: strain ATCC 29737.
The test system of assay [7] is Pseudomonas aeruginosa. The assay is described as follows: MIC, broth microdilution. Format: cell-based. The following applies: strain ATCC 9027.
Assay [8] deals with E. coli M6. Format: cell-based, Escherichia coli. The following applies: sub-inhibitory concentrations, MHB.
Assay [9] relates to Morganella morganii. In words: MIC, broth microdilution. Type of assay: cell-based. The following applies: strain ATCC 25830.
Assay [10] deals with Bacillus subtilis. The assay is described as follows: MIC, broth microdilution. Format: cell-based. As to conditions: strain ATCC 6633.
The mark [11] stands for this setting: strain ATCC 25922 (WT), broth microdilution, MHB, 18-20 h, 37 °C.

Like-named read-outs stand apart in the source and are kept apart here. Where no end group is shown, it is not given here.

As usually defined, the MIC is the lowest concentration found to suppress growth. A low value points to inhibition by little substance. With “WVNAFANWSKAL (also: bicyclic or more (positions not given here)) [Compound 15, xenorceptide A15]”, the minimum inhibitory concentration (MIC) was 64 µg/mL in assay [1] (setting [11]); >64 µg/mL in assay [2]; >64 µg/mL in assay [3]; >64 µg/mL in assay [4]; >64 µg/mL in assay [5]; >64 µg/mL in assay [6].
“WINAFGNWTKSF (also: bicyclic or more (positions not given here)) [Compound 16, xenorceptide A16]”: the minimal inhibitory concentration (MIC) in [1] (setting [11]), in assay [2], in assay [3], in assay [4], in assay [5] and in assay [6] was >64 µg/mL throughout.
As for “WVNAFVNWPKSF (also: bicyclic or more (positions not given here)) [Compound 5, xenorceptide A5]”, the minimal inhibitory concentration (MIC) in [1] (setting [11]) is 16 µg/mL; in assay [2] it was 32 µg/mL; in [7], >64 µg/mL; in assay [5] it was >64 µg/mL; in assay [6], >64 µg/mL.
“WVNAFANWSKSF (also: bicyclic or more (positions not given here)) [Compound 6, xenorceptide A6]”: the minimum inhibitory concentration (MIC) in [1] (setting [11]) is 64 µg/mL; in assay [2] it was >64 µg/mL; in assay [7], >64 µg/mL; in assay [5], >64 µg/mL; in [6], >64 µg/mL.
Regarding “WVNAFANWPKRF (also: bicyclic or more (positions not given here)) [Compound 13, xenorceptide A13]”, the MIC in assay [1] (setting [11]) was 8 µg/mL; in [2] it was 32 µg/mL; in [3], >64 µg/mL; in [4] it was >64 µg/mL; in [5], >64 µg/mL; in [6] it was >64 µg/mL.
In the case of colistin [reference compound], the “time to development of resistance in serial passage” value in assay [8] was found to be 3 days.
Consider “WINAFANWTKRI (also: bicyclic or more (positions not given here)) [Compound 3, xenorceptide A3]”, for which the MIC was 8 µg/mL in assay [1] (setting [11]); 64 µg/mL in assay [9]; 8 µg/mL in assay [2]; >64 µg/mL in [10]; 64 µg/mL in assay [7]; >64 µg/mL in [5]. Besides, the minimum inhibitory concentration (MIC) in assay [6] is >64 µg/mL.
In the case of “WVNAFARWDKKF (also: bicyclic or more (positions not given here)) [Compound 7, xenorceptide A7]”, the MIC in assay [1] (setting [11]) is 64 µg/mL; in [2] it was >64 µg/mL; in assay [7], >64 µg/mL; in [5], >64 µg/mL; in assay [6] it was >64 µg/mL.
On to “WVNAFAKWTKRI (also: bicyclic or more (positions not given here)) [Compound 11, xenorceptide A11]”, for which the minimum inhibitory concentration (MIC) in assay [1] (setting [11]) was 4 µg/mL; in [2] it was 8 µg/mL; in assay [3], >64 µg/mL; in [4], 8 µg/mL; in [5], >64 µg/mL; in [6], >64 µg/mL.
Consider dynobactin A [reference compound], for which the MIC is 16 µg/mL in [1] (K12 MG1655 BamA F394V, E435K, G443D); > 128 µg/mL in [1] (K12 MG1655 BamA G429V, G807V); 8 µg/mL in [1] (setting [11]); 16 µg/mL in [1] (strain K12 MG1655 (WT)).
Take “WVNAFANWTKRF (also: bicyclic or more (positions not given here)) [Compound 8, xenorceptide A8]”: the MIC in assay [1] (setting [11]) is 2 µg/mL; in assay [2], 4 µg/mL; in [7], 64 µg/mL; in [5], >64 µg/mL; in [6], >64 µg/mL.
Consider “WVNAYARWTNRF (also: bicyclic or more (positions not given here)) [Compound 4, xenorceptide A4]”, for which the MIC was 8 µg/mL in assay [1] (setting [11]); 64 µg/mL in assay [9]; 16 µg/mL in assay [2]; >64 µg/mL in assay [10]; >64 µg/mL in assay [7]; >64 µg/mL in assay [5]. Moreover, in [6], the MIC is >64 µg/mL.
Consider “WVNAFGNWSKSL (also: bicyclic or more (positions not given here)) [Compound 14, xenorceptide A14]”, for which the MIC in [1] (setting [11]) was 64 µg/mL; in [2] it was >64 µg/mL; in [3] it was >64 µg/mL; in assay [4] it was 64 µg/mL; in assay [5], >64 µg/mL; in [6] it was >64 µg/mL.
For the substance “WVNAYARWTKRF (also: bicyclic or more (positions not given here)) [Compound 12, xenorceptide A12]”, the MIC is 4 µg/mL in assay [1] (setting [11]); 16 µg/mL in [2]; >64 µg/mL in assay [3]; >64 µg/mL in assay [4]; >64 µg/mL in [5]; >64 µg/mL in [6].
